Source: ChEMBL document CHEMBL1201862, “PubChem BioAssay data set” (2004)
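Method: 48-hour compound exposure of cells in 96-well plates, five concentrations, linear interpolation of endpoints. GI50 marks 50% less growth.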 Calls of active or inactive are those of the source. Rule as the data show it: active = GI50 up to about 1.1 µM and inactive = higher.

Columns and labels:
Assay in all cases: growth of human tumour cells (NCI), 48 h
NCI-H460 = test system: NCI-H460
RXF 393 = test system: RXF 393
MCF7 = test system: MCF7
HCT-15 = test system: HCT-15
SK-OV-3 = test system: SK-OV-3
UACC-62 = test system: UACC-62
SK-MEL-2 = test system: SK-MEL-2
TK-10 = test system: TK-10
CCRF-CEM = test system: CCRF-CEM
SNB-75 = test system: SNB-75
ACHN = test system: ACHN
T47D = test system: T47D
UACC-257 = test system: UACC-257
MDA-MB-435 = test system: MDA-MB-435
SF-268 = test system: SF-268
Hs-578T = test system: Hs-578T
EKVX = test system: EKVX
SR = test system: SR
SK-MEL-28 = test system: SK-MEL-28

Row | Structure (SMILES) | GI50 (NCI-H460) | GI50 (RXF 393) | GI50 (MCF7) | GI50 (HCT-15) [µM] | GI50 (SK-OV-3) | GI50 (UACC-62) | GI50 (SK-MEL-2) | GI50 (TK-10) | GI50 (CCRF-CEM) | GI50 (SNB-75) | GI50 (ACHN) | GI50 (T47D) | GI50 (UACC-257) | GI50 (MDA-MB-435) | GI50 (SF-268) | GI50 (Hs-578T) | GI50 (EKVX) | GI50 (SR) | GI50 (SK-MEL-28)
1 | CCOc1cc(-c2nc3ccccn3c2/N=C/c2cc([N+](=O)[O-])cc([N+](=O)[O-])c2O)ccc1O | > 100 µM (inactive) | > 100 µM (inactive) | > 100 µM (inactive) | > 100 | > 100 µM (inactive) | > 100 µM (inactive) | > 100 µM (inactive) | > 100 µM (inactive) | 45 µM (inactive) | 88.1 µM (inactive) | > 100 µM (inactive) | > 100 µM (inactive) | > 100 µM (inactive) | > 100 µM (inactive) | > 100 µM (inactive) | > 100 µM (inactive) | > 100 µM (inactive) | > 100 µM (inactive) | > 100 µM (inactive)
2 | COC(=O)c1c(OC(C)=O)ccc2c1c1c(OC(C)=O)c3ccccc3c(OC(C)=O)c1n2C | 26.4 µM (inactive) | 29.5 µM (inactive) | 28.7 µM (inactive) | 27.9 | 16.1 µM (inactive) | 17.9 µM (inactive) | 17.3 µM (inactive) | 26.8 µM (inactive) | 23.2 µM (inactive) | 2.06 µM (inactive) | 15.4 µM (inactive) | 12.3 µM (inactive) | – | 37.8 µM (inactive) | 22.6 µM (inactive) | 18.3 µM (inactive) | 10.1 µM (inactive) | 14.5 µM (inactive) | 53.7 µM (inactive)
3 | O=C1C=C(Nc2ccc(S(=O)(=O)Nc3nccs3)cc2)c2ccccc2C1=O | 34 µM (inactive) | > 100 µM (inactive) | 18.9 µM (inactive) | 23.7 | > 100 µM (inactive) | 24.5 µM (inactive) | 28.6 µM (inactive) | > 100 µM (inactive) | 15.2 µM (inactive) | 21.5 µM (inactive) | 21 µM (inactive) | 69.5 µM (inactive) | 31.6 µM (inactive) | 17.7 µM (inactive) | 27.1 µM (inactive) | 25.8 µM (inactive) | 26.4 µM (inactive) | 39.5 µM (inactive) | 16.5 µM (inactive)
4 | CCC(=O)NC(NNS(=O)(=O)c1ccc(C)cc1)(C(F)(F)F)C(F)(F)F | 33.5 µM (inactive) | 23.2 µM (inactive) | 76 µM (inactive) | 32.1 | 64.3 µM (inactive) | 38.9 µM (inactive) | > 100 µM (inactive) | 54.1 µM (inactive) | 63.1 µM (inactive) | 51.9 µM (inactive) | 49.9 µM (inactive) | 96.8 µM (inactive) | 52 µM (inactive) | 18.7 µM (inactive) | 55 µM (inactive) | 34.2 µM (inactive) | > 100 µM (inactive) | 39.4 µM (inactive) | 20.3 µM (inactive)
5 | N=c1oc2ccc(Cl)cc2cc1C(=O)NCc1ccccc1 | > 100 µM (inactive) | 17.8 µM (inactive) | > 100 µM (inactive) | > 77.8 | > 100 µM (inactive) | 31.6 µM (inactive) | 51.1 µM (inactive) | > 100 µM (inactive) | 21.5 µM (inactive) | 22.4 µM (inactive) | > 91.8 µM (inactive) | 39 µM (inactive) | > 100 µM (inactive) | 78.3 µM (inactive) | > 100 µM (inactive) | 30.5 µM (inactive) | > 100 µM (inactive) | > 57.1 µM (inactive) | > 100 µM (inactive)
6 | CN(C)CCOc1ccc2c(c1)C/C(=C/c1ncc([N+](=O)[O-])n1C)C2=O | 0.508 µM (active) | 1.17 µM (inactive) | 0.703 µM (active) | 0.377 | 4.8 µM (inactive) | 1.95 µM (inactive) | 1.67 µM (inactive) | 3.52 µM (inactive) | 2.7 µM (inactive) | 2.28 µM (inactive) | 1.36 µM (inactive) | 6.03 µM (inactive) | 3.79 µM (inactive) | 2.99 µM (inactive) | 1.89 µM (inactive) | 12.9 µM (inactive) | 3.61 µM (inactive) | 0.242 µM (active) | 17.6 µM (inactive)
7 | CC(=O)OC/C=C/[C@H](O[Si](C)(C)C(C)(C)C)[C@@H](O)/C=C/COC(C)=O | > 100 µM (inactive) | > 100 µM (inactive) | 49.5 µM (inactive) | > 100 | > 100 µM (inactive) | > 100 µM (inactive) | > 100 µM (inactive) | > 100 µM (inactive) | 26 µM (inactive) | 5.45 µM (inactive) | > 100 µM (inactive) | > 100 µM (inactive) | > 100 µM (inactive) | > 100 µM (inactive) | > 100 µM (inactive) | > 100 µM (inactive) | > 100 µM (inactive) | 30.4 µM (inactive) | > 100 µM (inactive)
